{
  "source": "patent US20250040548A1",
  "about": "“Herbicidal compositions comprising saflufenacil” (BASF SF, priority 2023, published 2025)",
  "key": {"DIGSA": {"tested_on": "DIGSA", "assay": "Post-emergence application in field trials (Examples 2 and 3)", "format": "in vivo, Digitaria sanguinales", "procedure": "(§1) In the examples below, using the method of S. R. Colby (1967) “Calculating synergistic and antagonistic responses of herbicide combinations”, Weeds 15, p. 22ff., the value E, which is expected if the activity of the individual active compounds is only additive, was calculated.\n(§2) [formula] • where • X=percent activity using active herbicide A at an application rate a; • Y=percent activity using active saflufenacil at an application rate b; • E=expected activity (in %) by A+B at application rates a+b.\n(§3) If the value found experimentally is higher than the value E calculated according to Colby, a synergistic effect is present.\n(§4) On field test sites, natural weed infestation or seeded weeds were treated post-emergence of the weeds.\n(§5) For the post emergence treatment, the weedy plants were treated as indicated below. The herbicidal compositions were, together with the adjuvant(s) as indicated, suspended or emulsified in water (200 l/ha unless indicated otherwise) as distribution medium and sprayed with commercial flat fan nozzles.\n(§6) In the following experiments, the herbicidal activity for the individual herbicidal compositions (solo and mixture applications) was assessed the indicated days after treatment (DAT). The assessments for the damage on undesired weeds caused by the composition was carried out using a scale from 0 to 100%, compared to the untreated control plants. Here, 0 means no damage and 100 means complete destruction of the plants.\nas §5, with “I/ha” for “l/ha”"}, "AMATA": {"tested_on": "AMATA", "assay": "Post-emergence application in greenhouse trials", "format": "in vivo, Amaranthus tamariscinus", "conditions": "20 DAT, growth stage 14, 1% MSO", "procedure": "as §1, §2, §3\n(§7) The culture containers used were plastic pots containing loamy sand with approximately 3.0% of humus as substrate. The seeds of the test plants were sown separately for each species.\n(§8) For the post-emergence treatment, the test plants were grown to a plant height of from 3 to 15 cm, depending on the plant habit, and only then treated with the active compounds which had been suspended or emulsified in water. To this end, the test plants were either sown directly, and grown in the same containers, or they were first grown separately as seedlings and transplanted into the test containers a few days prior to treatment.\n(§9) Depending on the species, the plants were kept at 10-25° C. and 20-35° C., respectively.\n(§10) The test period extended over 2 to 4 weeks. During this time, the plants were tended and their response to the individual treatments was evaluated.\n(§11) Evaluation was carried out using a scale from 0 to 100. 100 means no emergence of the plants, or complete destruction of at least the above-ground parts, and 0 means no damage or normal course of growth. A good herbicidal activity is given at values of at least 70, and very good herbicidal activity is given at values of at least 85.\n(§12) Unless indicated otherwise, herbicide A and saflufenacil were formulated (50 g/I) and applied with addition of 1% MSO (methylated seed oil) as adjuvant. In the greenhouse trials, the solvent used was water (200 I/ha)."}, "ECHCG": {"tested_on": "ECHCG", "assay": "Post-emergence application in field trials (Examples 2 and 3)", "format": "in vivo, Echinocloa crus-galli", "procedure": "as §1, §2, §3, §4, §5, §6\nas §5, with “I/ha” for “l/ha”"}, "SETFA": {"tested_on": "SETFA", "assay": "Post-emergence application in greenhouse trials", "format": "in vivo, Setaria faberi", "conditions": "7 DAT, growth stage 13, 1% MSO", "procedure": "as §1, §2, §3, §7, §8, §9, §10, §11, §12"}, "BRADC": {"tested_on": "BRADC", "assay": "Post-emergence application in greenhouse trials", "format": "in vivo, Brachiaria decumbens", "conditions": "growth stage 12, saflufenacil as commercial 342 g/l SC formulation", "procedure": "as §1, §2, §3, §7, §8, §9, §10, §11, §12"}},
  "data": [
    {"compound": "CCOC(=O)COc1ccccc1Oc1nc(-n2c(=O)cc(C(F)(F)F)n(C)c2=O)c(F)cc1Cl", "note": "[A-1, ethyl 2-[2-[[3-chloro-5-fluoro-6-[3-methyl-2,6-dioxo-4-(trifluoromethyl)pyrimidin-1-yl]-2-pyridyl]oxy]phenoxy]acetate]", "values": [
      {"measurement": "% Herbicidal activity", "setting": "DIGSA; A-1 12.5 g ai/ha, 19 DAT, growth stage 13-19, height 2.5-7.5 cm, 1% v/v MSO and 1% w/v ammoniumsulfate", "value": 87, "unit": "%"},
      {"measurement": "% Herbicidal activity", "setting": "DIGSA; A-1 12.5 g ai/ha, 21 DAT, height 3-12 cm, 140 l/ha water, 1% MSO + 2.5% ammoniumsulfate", "value": 50, "unit": "%"},
      {"measurement": "% Herbicidal activity", "setting": "AMATA; A-1 0.2 g ai/ha", "value": 75, "unit": "%"},
      {"measurement": "% Herbicidal activity", "setting": "AMATA; A-1 0.3 g ai/ha", "value": 75, "unit": "%"},
      {"measurement": "% Herbicidal activity", "setting": "ECHCG; A-1 12.5 g ai/ha, 14 DAT, growth stage 14-19, height 2-8 cm, field, 140 l/ha water, 1% MSO + 2.5% ammoniumsulfate", "value": 75, "unit": "%"},
      {"measurement": "% Herbicidal activity", "setting": "ECHCG; A-1 25 g ai/ha, 21 DAT, height 12.5-30 cm, field, 1% v/v MSO and 1% w/v ammoniumsulfate", "value": 58, "unit": "%"},
      {"measurement": "% Herbicidal activity", "setting": "ECHCG; ECHCG, growth stage 21-23, height 43-44 cm, A-1 solo 30 g ai/ha, 21 DAT, 1% Dash ® HC", "value": 52, "unit": "%"},
      {"measurement": "% Herbicidal activity", "setting": "SETFA; A-1 0.2 g ai/ha", "value": 35, "unit": "%"},
      {"measurement": "% Herbicidal activity", "setting": "SETFA; A-1 0.3 g ai/ha", "value": 55, "unit": "%"},
      {"measurement": "% Herbicidal activity", "setting": "SETFA; A-1 0.4 g ai/ha", "value": 65, "unit": "%"},
      {"measurement": "% Herbicidal activity", "setting": "SETFA; A-1 0.5 g ai/ha", "value": 80, "unit": "%"},
      {"measurement": "% Herbicidal activity", "setting": "BRADC; A-1 1.56 g ai/ha, 21 DAT", "value": 75, "unit": "%"},
      {"measurement": "% Herbicidal activity", "setting": "BRADC; A-1 3.12 g ai/ha, 7 DAT", "value": 85, "unit": "%"},
      {"measurement": "% Herbicidal activity", "setting": "BRADC; A-1 3.12 g ai/ha, 21 DAT", "value": 85, "unit": "%"}
    ]},
    {"compound": "CC(C)N(C)S(=O)(=O)NC(=O)c1cc(-n2c(=O)cc(C(F)(F)F)n(C)c2=O)c(F)cc1Cl", "note": "[B-1, saflufenacil]", "values": [
      {"measurement": "% Herbicidal activity", "setting": "DIGSA; B-1 12.5 g ai/ha, 21 DAT, height 3-12 cm, 140 l/ha water, 1% MSO + 2.5% ammoniumsulfate", "value": 20, "unit": "%"},
      {"measurement": "% Herbicidal activity", "setting": "DIGSA; B-1 25 g ai/ha, 19 DAT, growth stage 13-19, height 2.5-7.5 cm, 1% v/v MSO and 1% w/v ammoniumsulfate", "value": 23, "unit": "%"},
      {"measurement": "% Herbicidal activity", "setting": "AMATA; B-1 0.2 g ai/ha", "value": 70, "unit": "%"},
      {"measurement": "% Herbicidal activity", "setting": "AMATA; B-1 0.3 g ai/ha", "value": 85, "unit": "%"},
      {"measurement": "% Herbicidal activity", "setting": "ECHCG; B-1 12.5 g ai/ha, 14 DAT, growth stage 14-19, height 2-8 cm, field, 140 l/ha water, 1% MSO + 2.5% ammoniumsulfate", "value": 40, "unit": "%"},
      {"measurement": "% Herbicidal activity", "setting": "ECHCG; B-1 25 g ai/ha, 21 DAT, height 12.5-30 cm, field, 1% v/v MSO and 1% w/v ammoniumsulfate", "value": 23, "unit": "%"},
      {"measurement": "% Herbicidal activity", "setting": "ECHCG; ECHCG, growth stage 21-23, height 43-44 cm, B-1 solo 25 g ai/ha, 21 DAT, 1% Dash ® HC", "value": 27, "unit": "%"},
      {"measurement": "% Herbicidal activity", "setting": "SETFA; B-1 0.5 g ai/ha", "value": 10, "unit": "%"},
      {"measurement": "% Herbicidal activity", "setting": "SETFA; B-1 0.8 g ai/ha", "value": 15, "unit": "%"},
      {"measurement": "% Herbicidal activity", "setting": "SETFA; B-1 0.9 g ai/ha", "value": 15, "unit": "%"},
      {"measurement": "% Herbicidal activity", "setting": "SETFA; B-1 1.1 g ai/ha", "value": 35, "unit": "%"},
      {"measurement": "% Herbicidal activity", "setting": "BRADC; B-1 3.12 g ai/ha, 7 DAT", "value": 40, "unit": "%"},
      {"measurement": "% Herbicidal activity", "setting": "BRADC; B-1 3.12 g ai/ha, 21 DAT", "value": 25, "unit": "%"}
    ]}
  ]
}
